These results are taken from ChEMBL document CHEMBL4396965.

Structures are written as SMILES.

What all share (format): cell-based
The test system of one series is PBMC. Nature of the series: (§1) Cytotoxicity against human PBMC cells. The note with it: pbmc.
Another series deals with CCRF-CEM. Nature of the series: Cytotoxicity against human CEM cells.
Another series concerns Vero. Nature of the series: Cytotoxicity against African green monkey Vero cells. The note with it: chlorocebus sabaeus.
In another series the test system is Huh-7. The series is described as follows: Cytotoxicity against human HuH7 cells.
The next series deals with A549. The series is described as follows: Cytotoxicity against human A549 cells.
Series [1] in a line: as §1. The following applies: PBMC cells.

On to `O=C(O)[C@H]1C2C=CC(CC2)[C@@H]1Nc1nc(-c2n[nH]c3ncc(F)cc23)nc2sccc12` (some centres not stated), for which the 50% cytotoxic concentration (CC50) was > 100 µM in the series with PBMC; 13.7 µM in the series on CCRF-CEM; > 100 µM in the series on Vero; 62.7 µM in the series on Huh-7; > 100 µM with A549.
In the case of `O=C(O)[C@H]1C2CCC(CC2)[C@@H]1Nc1nc(-c2c[nH]c3ncc(F)cc23)ncc1F` [PIMODIVIR], the cytotoxic concentration (CC50) was > 100 µM in the series on PBMC; 48.9 µM with CCRF-CEM; > 100 µM with Vero; 95.8 µM in the series on Huh-7; 20 µM in the series on A549.
Consider `O=C(O)[C@H]1C2C=CC(CC2)[C@@H]1Nc1nc2cnc(-c3c[nH]c4ncc(F)cc34)nc2s1` (some centres not stated), for which the CC50 is 84.8 µM with PBMC; 17.3 µM with CCRF-CEM; 86.1 µM in the series with Vero; 70.2 µM in the series on Huh-7; 31.3 µM in the series on A549.
For `O=C(O)[C@H]1C2CCC(C3CC32)[C@@H]1Nc1nc(-c2c[nH]c3ncc(F)cc23)ncc1F` (some centres not stated), the half-maximal cytotoxic concentration (CC50) was > 100 µM with PBMC, 62.9 µM in the series on CCRF-CEM, > 100 µM with Vero and 94.6 µM in the series on A549.
With `Cn1cnc2nc(-c3c[nH]c4ncc(F)cc34)nc(N[C@H]3C4C=CC(CC4)[C@@H]3C(=O)O)c21` (some centres not stated), the CC50 with PBMC, in the series with CCRF-CEM, in the series with Vero, in the series with Huh-7 and in the series on A549 was > 100 µM throughout.
Consider `Cn1cnc2c(N[C@H]3C4C=CC(CC4)[C@@H]3C(=O)O)nc(-c3c[nH]c4ncc(F)cc34)nc21` (some centres not stated), for which the cytotoxic concentration (CC50) with PBMC was > 100 µM; with CCRF-CEM, 29.1 µM; in the series on Vero, > 100 µM; in the series with Huh-7, > 100 µM; in the series with A549 it was ≥ 100 µM.
Take `O=C(O)[C@H]1C2C=CC(CC2)[C@@H]1Nc1nc(-c2n[nH]c3ncc(F)cc23)ncc1F` (some centres not stated): the CC50 with PBMC is > 100 µM; in the series with CCRF-CEM it was 48.9 µM; with Vero, > 100 µM; in the series on Huh-7, 83 µM; in the series on A549, 30.6 µM.
With `O=C(O)[C@H]1C2C=CC(CC2)[C@@H]1Nc1nc(-c2c[nH]c3ncc(F)cc23)ncc1F` (some centres not stated), the figures for the CC50 (in series [1]; with CCRF-CEM; in the series on Vero) were > 100 µM, 91.1 µM and > 100 µM, respectively.
As for `O=C(O)[C@H]1C2C=CC(C2)[C@@H]1Nc1nc(-c2c[nH]c3ncc(F)cc23)ncc1F` (some centres not stated), the CC50 in the series with PBMC, in the series with CCRF-CEM, in the series on Vero, in the series with Huh-7 and in the series on A549 was > 100 µM each time.
Consider `O=C(O)[C@H]1C2C=CC(CC2)[C@@H]1Nc1nc(-c2c[nH]c3ncc(F)cc23)nc2ccsc12` (some centres not stated), for which the cytotoxic concentration (CC50) was determined as 64.6 µM with PBMC; 31.6 µM with CCRF-CEM; 74.9 µM in the series with Vero; 68.7 µM in the series with Huh-7; 14.7 µM in the series with A549.
Take `Cc1cc2nc(-c3c[nH]c4ncc(F)cc34)nc(N[C@H]3C4C=CC(CC4)[C@@H]3C(=O)O)c2s1` (some centres not stated): the CC50 in the series with PBMC was 78.4 µM; in the series with CCRF-CEM, 12.9 µM; with Vero, 90.3 µM; with Huh-7, 31.2 µM; in the series with A549, 41.7 µM.
As to `O=C(O)[C@H]1C2C=CC(CC2)[C@@H]1Nc1nc(-c2c[nH]c3ncc(F)cc23)nc2sccc12` (some centres not stated), the CC50 in the series on PBMC came out at 9.3 µM; in the series with CCRF-CEM, 4.2 µM; in the series on Vero it was 65.9 µM; in the series with Huh-7 it was 24 µM; with A549, 14.5 µM.
In the same order, the values of `O=C(O)[C@H]1C2C=CC(CC2)[C@@H]1Nc1cc2nncn2c(-c2c[nH]c3ncc(F)cc23)n1` (some centres not stated) are > 100 µM, 30.8 µM, > 100 µM, 71 µM and 51.9 µM.
In the same order, the values of `O=C(O)C12CC3CC(CC(Nc4nc(-c5c[nH]c6ncc(F)cc56)ncc4F)(C3)C1)C2` are 23.1 µM, 10.1 µM, 30.3 µM, 14.3 µM and 16.2 µM.
Take `Cc1csc2c(N[C@H]3C4C=CC(CC4)[C@@H]3C(=O)O)nc(-c3c[nH]c4ncc(F)cc34)nc12` (some centres not stated): the CC50 in the series with PBMC, in the series with CCRF-CEM, with Vero, in the series on Huh-7 and in the series on A549 was > 100 µM in each case.
Take `O=C(O)[C@H]1C2C=CC(CC2)[C@@H]1Nc1nc(-c2n[nH]c3ncc(F)cc23)nc2ccsc12` (some centres not stated): the CC50 in the series with PBMC is > 100 µM; in the series on CCRF-CEM, 67 µM; in the series with Vero, 52.5 µM; with Huh-7, 70.7 µM; with A549 it was 32.5 µM.
As for `O=C(O)[C@H]1C2C=CC(CC2)[C@@H]1c1nnc2c(F)cnc(-c3c[nH]c4ncc(F)cc34)n12` (some centres not stated), the CC50 in the series on PBMC is ≥ 100 µM; in the series on CCRF-CEM, 41.7 µM; with Vero, ≥ 100 µM; with Huh-7, ≥ 100 µM; with A549, 65.4 µM.
